pIC50, pKi: −log10 of the molar value. Where a name gives a salt, the structure may show the parent alone.
Tests used:
[1] = molecular target: T1, adrenergic receptor α1A (Rattus norvegicus, UniProt P43140); assay: Radioligand binding to adrenergic receptor α1A ([3H] Prazosin, rat submaxillary gland membranes); details: for α-Adrenoceptor, % inhibition α1A: 10 µM ligand
T1 construct: membrane species from rat submaxillary glands (rat of Wistar breed) are prepared; from tissue; host or cells: rat (Wistar) submaxillary gland
T1 sequence (P43140 1-466): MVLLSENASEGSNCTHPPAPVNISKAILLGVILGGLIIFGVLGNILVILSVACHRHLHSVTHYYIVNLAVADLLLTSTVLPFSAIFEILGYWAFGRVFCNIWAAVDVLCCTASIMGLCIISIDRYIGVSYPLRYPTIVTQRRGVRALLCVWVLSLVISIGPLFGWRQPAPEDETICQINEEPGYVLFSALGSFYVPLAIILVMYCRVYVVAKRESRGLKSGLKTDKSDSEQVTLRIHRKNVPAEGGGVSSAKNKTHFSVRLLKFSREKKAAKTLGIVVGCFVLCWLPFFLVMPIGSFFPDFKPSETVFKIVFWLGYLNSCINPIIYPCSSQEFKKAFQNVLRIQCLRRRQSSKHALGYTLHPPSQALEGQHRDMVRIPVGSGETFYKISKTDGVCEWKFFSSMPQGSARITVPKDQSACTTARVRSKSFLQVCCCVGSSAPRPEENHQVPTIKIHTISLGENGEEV
Description: Determination of investigated compounds' binding to α1A receptor was carried out according to the method described in [Michel AD, Loury DN and Whiting R1. Identification of a single α1A-adrenoceptor corresponding to the α1A-subtype in rat submaxillary gland. […] Prazosin is used as positive control.

[2] = molecular target: T2, adrenergic receptor α1B (Rattus norvegicus, UniProt P15823); assay: Radioligand binding to adrenergic receptor α1B ([3H] Prazosin, rat liver membranes); details: for α-Adrenoceptor, % inhibition α1B: 10 µM ligand
T2 construct: membrane species from rat liver (rat of Wistar breed) are prepared; from tissue; host or cells: rat (Wistar) liver
T2 sequence (P15823 1-515): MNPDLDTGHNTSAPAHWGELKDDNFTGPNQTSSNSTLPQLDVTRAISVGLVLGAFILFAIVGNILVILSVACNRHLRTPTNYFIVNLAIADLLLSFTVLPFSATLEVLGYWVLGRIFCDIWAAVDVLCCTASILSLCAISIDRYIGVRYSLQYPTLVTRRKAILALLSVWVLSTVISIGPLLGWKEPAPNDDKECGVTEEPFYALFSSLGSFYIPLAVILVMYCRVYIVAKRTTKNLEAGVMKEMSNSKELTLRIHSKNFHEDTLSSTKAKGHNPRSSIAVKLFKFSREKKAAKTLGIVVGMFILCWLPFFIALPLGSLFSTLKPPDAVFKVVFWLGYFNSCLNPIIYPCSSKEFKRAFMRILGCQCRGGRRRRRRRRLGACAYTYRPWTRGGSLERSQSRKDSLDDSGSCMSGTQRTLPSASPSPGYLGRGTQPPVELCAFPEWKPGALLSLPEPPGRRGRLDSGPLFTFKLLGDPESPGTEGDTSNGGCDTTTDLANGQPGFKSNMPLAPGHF
From the text: Species heterogeneity of hepatic α1A-, α1B-, and α1C-subtypes. Biochem Biophys Res Commun. […] Prazosin is used as positive control.

[3] = molecular target: T3, human α1D receptor (Homo sapiens, UniProt P25100); assay: Radioligand binding to adrenergic receptor α1D ([3H] Prazosin, HEK-293 membranes); details: for inhibition at 10 µM: read-out: α-Adrenoceptor, % inhibition α1D; for α-Adrenoceptor, % inhibition α1D: 10 µM ligand
T3 construct: expressed in transfected cells; host or cells: HEK-293
T3 sequence (P25100 1-572): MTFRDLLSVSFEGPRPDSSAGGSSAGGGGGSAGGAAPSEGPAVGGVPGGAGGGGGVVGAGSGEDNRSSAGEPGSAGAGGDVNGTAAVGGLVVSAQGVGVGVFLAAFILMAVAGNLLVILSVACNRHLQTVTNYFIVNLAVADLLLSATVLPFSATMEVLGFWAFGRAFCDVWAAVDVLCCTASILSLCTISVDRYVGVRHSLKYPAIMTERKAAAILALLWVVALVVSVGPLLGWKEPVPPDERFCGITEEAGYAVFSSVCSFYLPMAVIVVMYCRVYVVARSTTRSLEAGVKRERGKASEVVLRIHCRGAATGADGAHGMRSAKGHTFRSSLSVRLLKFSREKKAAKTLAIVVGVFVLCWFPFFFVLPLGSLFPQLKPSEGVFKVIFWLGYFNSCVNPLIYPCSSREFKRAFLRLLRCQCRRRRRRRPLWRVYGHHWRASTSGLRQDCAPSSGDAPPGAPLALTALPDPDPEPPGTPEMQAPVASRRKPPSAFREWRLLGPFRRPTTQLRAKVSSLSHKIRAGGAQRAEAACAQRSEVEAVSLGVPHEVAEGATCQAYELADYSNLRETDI
From the text: 6-C. […] For this purpose sDNA of human α1D receptor is expressed in HEK-293 cells, as it was described in [TL Theroux, TA Esbenshade, RD Peavy and KP Minneman. Coupling efficiencies of human alpha 1-adrenergic receptor subtypes: titration of receptor density and responsiveness with inducible and repressible expression vectors. Mol Pharmacol.; 50: 1376-1387, 1996]. […] Characterization of an α1D-adrenoceptor mediating the contractile response of rat aorta to noradrenaline. […] Prazosin is used as positive control.

[4] = molecular target: T4, human α2A receptor (Homo sapiens, UniProt P08913); assay: Radioligand binding to adrenergic receptor α2A ([3H] MK-912, Sf9 membranes)
T4 construct: expressed in transfected cells; host or cells: Sf9
T4 sequence (P08913 1-465): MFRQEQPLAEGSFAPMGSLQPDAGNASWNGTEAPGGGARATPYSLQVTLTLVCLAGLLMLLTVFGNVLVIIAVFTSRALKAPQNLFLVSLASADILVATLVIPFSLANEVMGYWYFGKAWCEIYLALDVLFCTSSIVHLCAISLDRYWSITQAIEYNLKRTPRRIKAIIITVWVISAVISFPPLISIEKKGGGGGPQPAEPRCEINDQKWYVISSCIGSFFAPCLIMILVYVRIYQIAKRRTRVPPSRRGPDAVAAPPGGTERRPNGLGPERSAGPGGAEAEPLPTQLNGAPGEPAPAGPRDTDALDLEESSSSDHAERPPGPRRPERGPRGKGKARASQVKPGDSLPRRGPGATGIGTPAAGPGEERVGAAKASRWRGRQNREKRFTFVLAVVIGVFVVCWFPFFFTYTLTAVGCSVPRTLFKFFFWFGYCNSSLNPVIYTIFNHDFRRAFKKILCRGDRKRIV
From the text: For this purpose sDNA of human α2A receptor is expressed in Sf9 cells, as described in [Uhlen S, Porter AC and Neubig RR. […] J Pharmacol ExpTher. […] J Pharmacol ExpTher. […] Yohimbine is used as positive control.

[5] = molecular target: T5, recombinant human 5-HT2C receptor (Homo sapiens, UniProt P28335); assay: Radioligand binding to serotonin receptor 5-HT2C ([3H] Mesulergine, CHO-K1 membranes); details: read-out: 5-HT2C % inhibition
T5 construct: expressed in transfected cells; host or cells: CHO-K1
T5 sequence (P28335 33-458): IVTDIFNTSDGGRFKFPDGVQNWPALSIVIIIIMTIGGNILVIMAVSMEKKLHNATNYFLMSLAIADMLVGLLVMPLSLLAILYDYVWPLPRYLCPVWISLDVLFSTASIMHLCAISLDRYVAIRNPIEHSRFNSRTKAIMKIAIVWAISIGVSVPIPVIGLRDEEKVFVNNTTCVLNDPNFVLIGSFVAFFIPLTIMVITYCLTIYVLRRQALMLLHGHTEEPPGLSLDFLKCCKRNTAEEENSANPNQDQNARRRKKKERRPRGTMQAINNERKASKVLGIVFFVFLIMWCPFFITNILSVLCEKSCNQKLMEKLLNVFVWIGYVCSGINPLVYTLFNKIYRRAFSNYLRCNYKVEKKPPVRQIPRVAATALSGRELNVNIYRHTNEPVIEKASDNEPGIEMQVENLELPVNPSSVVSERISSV
From the text: J Neurochem. 69: 1449 - 1458, 1997]. […] SB242084 is used as positive control.

[6] = molecular target: T6, recombinant human 5-HT6 receptor (Homo sapiens, UniProt P50406); assay: Radioligand binding to serotonin receptor 5-HT6 ([3H] Lysergic acid diethylamide, HeLa membranes); details: for inhibition at 1 µM: read-out: 5-HT6 % inhibition
T6 construct: expressed in transfected cells; host or cells: HeLa
T6 sequence (P50406 whole entry): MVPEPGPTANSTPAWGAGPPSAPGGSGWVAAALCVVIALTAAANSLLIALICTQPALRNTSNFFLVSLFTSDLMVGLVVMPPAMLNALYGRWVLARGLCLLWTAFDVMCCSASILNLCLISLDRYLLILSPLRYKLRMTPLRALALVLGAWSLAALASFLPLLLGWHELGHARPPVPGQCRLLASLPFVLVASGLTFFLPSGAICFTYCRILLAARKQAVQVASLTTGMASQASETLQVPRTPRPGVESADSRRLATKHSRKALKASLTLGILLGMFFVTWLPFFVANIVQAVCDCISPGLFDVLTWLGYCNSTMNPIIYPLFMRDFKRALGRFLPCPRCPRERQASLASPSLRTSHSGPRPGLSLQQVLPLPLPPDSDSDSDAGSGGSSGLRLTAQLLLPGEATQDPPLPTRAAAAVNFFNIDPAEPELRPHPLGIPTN
From the text: Mol Pharmacol. 43:320-327, 1993]. […] Methiothepin is used as positive control.

[7] = tested on: imidazoline receptor I2; assay: Radioligand binding to imidazoline receptor I2 ([3H] Idazoxan, rat brain membranes); details: 10 µM ligand
[8] = molecular target: T7, human H1 receptor (Homo sapiens, UniProt P35367); assay: Radioligand binding to histamine receptor H1 ([3H] Pyrilamine, CHO-K1 membranes); details: read-out: Histamine receptors, % inhibition H1, 10 µM ligand
T7 construct: expressed in transfected cells; host or cells: CHO-K1
T7 sequence (P35367 whole entry): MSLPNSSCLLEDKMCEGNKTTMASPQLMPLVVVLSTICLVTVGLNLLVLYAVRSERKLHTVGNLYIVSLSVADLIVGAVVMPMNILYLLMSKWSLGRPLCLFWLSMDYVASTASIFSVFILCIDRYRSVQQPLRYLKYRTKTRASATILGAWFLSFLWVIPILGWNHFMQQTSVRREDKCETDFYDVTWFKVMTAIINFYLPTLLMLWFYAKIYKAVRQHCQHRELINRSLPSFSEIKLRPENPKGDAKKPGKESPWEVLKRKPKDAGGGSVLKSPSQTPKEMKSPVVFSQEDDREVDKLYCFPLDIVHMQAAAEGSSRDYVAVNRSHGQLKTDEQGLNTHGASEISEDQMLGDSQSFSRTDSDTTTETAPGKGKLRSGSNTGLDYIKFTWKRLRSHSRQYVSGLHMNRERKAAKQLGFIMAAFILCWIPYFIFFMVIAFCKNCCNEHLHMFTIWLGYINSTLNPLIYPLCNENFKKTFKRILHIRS
From the text: Biochem Biophys Res Comm. 197(3): 1601-1608, 1993]. […] Biochem Biophys Res Comm. 197(3): 1601-1608, 1993].
Pyrilamine is used as positive control.

[9] = molecular target: T8, human H2 receptor (Homo sapiens, UniProt P25021); assay: Radioligand binding to histamine receptor H2 ([125I] Aminopotentidine, CHO-K1 membranes); details: read-out: Histamine receptors, % inhibition H2
T8 construct: expressed in transfected cells; host or cells: CHO-K1
T8 sequence (P25021 whole entry): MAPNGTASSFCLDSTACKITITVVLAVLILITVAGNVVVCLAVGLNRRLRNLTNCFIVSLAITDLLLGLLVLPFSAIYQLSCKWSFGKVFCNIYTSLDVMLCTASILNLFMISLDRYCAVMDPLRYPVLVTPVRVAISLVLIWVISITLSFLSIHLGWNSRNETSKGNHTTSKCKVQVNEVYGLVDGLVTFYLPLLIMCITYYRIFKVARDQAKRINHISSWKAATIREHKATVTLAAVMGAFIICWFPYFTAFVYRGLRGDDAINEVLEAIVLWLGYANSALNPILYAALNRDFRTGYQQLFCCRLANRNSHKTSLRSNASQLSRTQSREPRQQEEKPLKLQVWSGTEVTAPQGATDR
From the text: Proc Natl Acad Sci USA. 87(5): 1658-1662, 1990]. […] Proc Natl Acad Sci USA. 87(5): 1658-1662, 1990]. […] Tiotidine is used as positive control.

[10] = molecular target: T9, recombinant human 5-HT2A receptor (Homo sapiens, UniProt P28223); assay: Radioligand binding to serotonin receptor 5-HT2A ([3H] Ketanserin, CHO-K1 membranes)
T9 construct: expressed in transfected cells; host or cells: CHO-K1
T9 sequence (P28223 whole entry): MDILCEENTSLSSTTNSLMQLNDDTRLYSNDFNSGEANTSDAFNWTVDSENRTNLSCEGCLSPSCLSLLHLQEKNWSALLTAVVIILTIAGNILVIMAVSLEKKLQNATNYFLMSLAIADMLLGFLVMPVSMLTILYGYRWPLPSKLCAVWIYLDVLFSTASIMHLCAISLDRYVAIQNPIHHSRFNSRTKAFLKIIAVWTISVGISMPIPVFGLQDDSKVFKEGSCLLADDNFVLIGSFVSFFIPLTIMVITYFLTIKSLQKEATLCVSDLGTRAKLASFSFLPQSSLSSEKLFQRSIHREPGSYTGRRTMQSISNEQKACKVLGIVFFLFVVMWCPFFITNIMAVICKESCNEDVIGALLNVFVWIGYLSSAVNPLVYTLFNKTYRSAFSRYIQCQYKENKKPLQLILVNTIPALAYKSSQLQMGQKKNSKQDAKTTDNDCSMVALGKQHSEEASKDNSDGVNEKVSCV
From the text: 9-C. […] J Neurochem. […] Ketanserin is used as positive control.

[11] = molecular target: T10, recombinant human 5-HT2B receptor (Homo sapiens, UniProt P41595); assay: Radioligand binding to serotonin receptor 5-HT2B ([3H] Lysergic acid diethylamide, CHO-K1 membranes)
T10 construct: expressed in transfected cells; host or cells: CHO-K1
T10 sequence (P41595 whole entry): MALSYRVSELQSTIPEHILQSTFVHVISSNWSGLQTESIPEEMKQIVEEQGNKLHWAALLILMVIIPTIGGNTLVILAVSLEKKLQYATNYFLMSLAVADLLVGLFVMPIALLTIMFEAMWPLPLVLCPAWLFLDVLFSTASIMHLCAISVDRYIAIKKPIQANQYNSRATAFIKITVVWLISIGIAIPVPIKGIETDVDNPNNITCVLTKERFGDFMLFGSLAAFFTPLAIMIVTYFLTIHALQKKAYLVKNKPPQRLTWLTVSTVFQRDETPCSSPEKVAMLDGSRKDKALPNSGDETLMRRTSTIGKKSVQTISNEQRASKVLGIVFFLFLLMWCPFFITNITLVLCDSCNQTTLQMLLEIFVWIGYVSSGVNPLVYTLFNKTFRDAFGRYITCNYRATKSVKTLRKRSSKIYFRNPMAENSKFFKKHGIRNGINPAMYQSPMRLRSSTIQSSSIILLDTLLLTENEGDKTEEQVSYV

α-Adrenoceptor, % inhibition α1A [1]	α-Adrenoceptor, % inhibition α1B [2]	α-Adrenoceptor, % inhibition α1D [3]	Structure (SMILES)	inhibition at 10 µM [3]	inhibition at 1 µM [5]	inhibition at 1 µM [6]	% inhibition [7]	further results
–	–	–	Cc1ccc2c(c1)c1c(n2CCc2cccnc2)CCCN(C)C1 [1.2.2(3-2)·2HCl]	60%	90%	79%	63%	inhibition at 10 µM ([1]; read-out: α-Adrenoceptor, % inhibition α1A): 61%; inhibition at 10 µM ([2]; read-out: α-Adrenoceptor, % inhibition α1B): 75%; inhibition at 10 µM ([4]; read-out: α-Adrenoceptor, % inhibition α2A): 71%
80%	85%	68%	Cc1ccc2c(c1)c1c(n2CCc2ccc(C)nc2)CCCN(C)C1 [1.2.2(4-1)]	–	–	–	80%	α-Adrenoceptor, % inhibition α2A ([4]; 10 µM ligand): 79%
74%	89%	68%	Cc1ccc2c(c1)c1c(n2CCc2ccncc2)CCCN(C)C1 [1.2.2(5-2)]	–	–	–	72%	–
–	–	–	Cc1ccc(S(=O)(=O)n2c3c(c4cc(C)ccc42)CN(C)CCC3)cc1 [1.8.1(3)·HCl]	55%	90%	93%	17%	inhibition at 10 µM [8]: 95%; inhibition at 10 µM [9]: 82%; nH ([10]; 5-HT2A): 1.01; inhibition at 1 µM ([10]; ligand concentration 1 µM): 100%; nH ([11]; 5-HT2B): 0.784; inhibition at 1 µM ([11]; read-out: 5-HT2B % inhibition): 101%; pIC50 [6]: 6.27; pKi [6]: 6.51; nH ([6]; 5-HT6): 1.07; nH ([6]; last block of Table 11: receptor printed 5-HT6 in r18, cell blank in r19-r21): 0.665

Reference: patent publication EP2236511A2, “LIGANDS OF ALPHA-ADRENOCEPTORS AND OF DOPAMINE, HISTAMINE, IMIDAZOLINE AND SEROTONIN RECEPTORS AND THE USE THEREOF” (priority 2007, dated 2009)
